Measurements taken from patent US20240317801A1, “PEPTIDOMIMETIC MATRIPTASE 2 INHIBITORS AND USES THEREOF” (Disc Medicine, Inc., priority 2020, published 2024).
pKi: −log10 of the molar value.

Biological target: T1, Human Recombinant Matriptase 2 (Homo sapiens, UniProt Q8IU80)
T1 construct: purchased Enzo Life Sciences ALX-201-752-1
T1 sequence (Q8IU80 1-811): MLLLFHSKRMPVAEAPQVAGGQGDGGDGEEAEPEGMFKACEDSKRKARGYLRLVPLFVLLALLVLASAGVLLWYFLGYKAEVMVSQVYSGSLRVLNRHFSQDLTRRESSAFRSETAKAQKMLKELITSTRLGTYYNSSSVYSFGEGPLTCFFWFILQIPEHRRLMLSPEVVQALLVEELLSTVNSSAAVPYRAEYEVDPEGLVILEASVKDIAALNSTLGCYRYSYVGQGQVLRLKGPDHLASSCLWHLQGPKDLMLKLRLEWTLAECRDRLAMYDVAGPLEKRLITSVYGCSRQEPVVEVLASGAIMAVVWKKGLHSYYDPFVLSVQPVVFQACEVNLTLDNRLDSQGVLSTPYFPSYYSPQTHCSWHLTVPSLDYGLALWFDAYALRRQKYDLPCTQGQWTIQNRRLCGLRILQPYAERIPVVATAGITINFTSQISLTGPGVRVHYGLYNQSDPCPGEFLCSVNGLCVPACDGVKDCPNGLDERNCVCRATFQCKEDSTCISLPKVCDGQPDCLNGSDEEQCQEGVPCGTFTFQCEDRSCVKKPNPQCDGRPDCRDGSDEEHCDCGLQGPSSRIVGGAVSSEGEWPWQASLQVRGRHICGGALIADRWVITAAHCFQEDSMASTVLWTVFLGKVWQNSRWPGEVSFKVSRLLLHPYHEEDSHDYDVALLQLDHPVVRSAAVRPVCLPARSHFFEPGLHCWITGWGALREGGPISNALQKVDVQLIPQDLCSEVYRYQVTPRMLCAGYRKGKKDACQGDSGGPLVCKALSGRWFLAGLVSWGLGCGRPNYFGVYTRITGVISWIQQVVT
Test: Matriptase 2 fluorescence-based inhibition assay (Boc-Gln-Ala-Arg-AMC substrate)
Format: biochemical
Conditions: Ki derived from measured IC50 using Cheng-Prusoff equation; 30 min preincubation, 100 μM substrate, 25° C., pH 7.5; read-out: Mat-2 Ki
Description: Test compounds were evaluated for their potential to inhibit Human Recombinant Matriptase 2 (in-house and commercial protein from Enzo Life Sciences—cat log—ALX-201-752-1) using fluorescence-based assay. The concentration of Recombinant Matriptase 2 and the substrate used in the assay were: 7 nM (commercial) and 15 nM (In-house Matriptase 2) and 100 μM (Boc-Gln-Ala-Arg-7-amido-4-methyl coumarin hydrobromide—Cat log: B4153-Sigma and I-1550 from Bachem) respectively. The assay buffer used comprised 50 mM TRIS pH 7.5, 150 mM NaCl, 0.01% gelatin (G1393 Sigma). The assay was performed by using 384 well black flat bottom plate from Grenier (Cat log: 781076) at 25° C. The enzyme and the test compound were preincubated for 30 mins, and the plate was read at wavelength Ex: 360/Em:480 nm60 mins after substrate addition. The final assay volume of was 20 μl. Stock solution of compounds were initially prepared in DMSO, which were appropriately diluted for screening to determine IC50 determination (final DMSO conc in the assay was 1%). All the measurements were carried out using the Spectramax M5, Molecular devices. The test compounds were screened at 1 and 10 μM concentrations and IC50 was determined for the interested compounds.
Ki is the binding affinity of an inhibitor. Mat-2 Ki as described herein is the binding affinity of an inhibitor such as a compound as described and provided herein to Mat-2. Mat-2 Ki values are derived from the measured IC50. To determine IC50 values, dose-response curves were generated by plotting percentage inhibition as a function of inhibitor concentration and the data was fitted to a sigmoidal non-linear regression equation (variable slope) using Graph Pad Prism software V7. Mat-2 Ki values as described herein were derived from the IC50 using the Cheng-Prusoff equation, which is understood and appreciated by one the skill in the art. The Mat-2 Ki values of tested compounds as described herein are shown in Table A. Accordingly, the compounds can be used to inhibit matriptase 2 and treat diseases and conditions associated with matriptase 2, such as those described herein.

Compound | pKi
C[C@@H](O)[C@H](NC(=O)[C@H](CCc1ccccc1)NC(=O)CCc1ccccc1)C(=O)N[C@@H](CCCNC(=N)N)C(=O)C(N)=O | ≥ 7.00
CNC(=O)C(=O)[C@H](CCCNC(=N)N)NC(=O)[C@@H](NC(=O)[C@H](CCc1ccccc1)NC(=O)CCc1ccccc1)[C@@H](C)O | ≥ 7.00
C[C@@H](O)[C@H](NC(=O)[C@H](CCc1ccccc1)NC(=O)CCc1ccccc1)C(=O)N[C@@H](CCCNC(=N)N)C(=O)C(=O)N(C)C | ≤ 6.00
CCNC(=O)C(=O)C(CCCNC(=N)N)NC(=O)[C@@H](NC(=O)[C@H](CCc1ccccc1)NC(=O)CCc1ccccc1)[C@@H](C)O (stereo partly shown) | ≥ 7.00
CNC(=O)C(O)C(CCCNC(=N)N)NC(=O)[C@@H](NC(=O)[C@H](CCc1ccccc1)NC(=O)CCc1ccccc1)[C@@H](C)O (stereo partly shown) | ≤ 6.00
CCOC(=O)CNC(=O)C(=O)C(CCCNC(=N)N)NC(=O)[C@@H](NC(=O)C(CCc1ccccc1)NC(=O)CCc1ccccc1)[C@@H](C)O (stereo partly shown) | 6.00 to 7.00
CC(C)[C@H](NC(=O)[C@H](Cc1cscn1)NC(=O)CCc1ccccc1)C(=O)N[C@@H](CCCNC(=N)N)C(=O)C(=O)NC1CC1 | ≥ 7.00
C[C@@H](O)[C@H](NC(=O)[C@H](Cc1cscn1)NC(=O)CCc1ccccc1)C(=O)N[C@@H](CCCNC(=N)N)C(=O)C(=O)NC1CC1 | ≥ 7.00
CO[C@H](C)[C@H](NC(=O)[C@H](CCc1ccccc1)NC(=O)CCc1ccccc1)C(=O)N[C@@H](CCCNC(=N)N)C(=O)C(=O)NC1CC1 | ≥ 7.00
C[C@H](O)[C@H](NC(=O)[C@H](CCc1ccccc1)NC(=O)CCc1ccccc1)C(=O)NC(CCCNC(=N)N)C(=O)C(=O)NC1CC1 (stereo partly shown) | ≥ 7.00
CCNC(=O)C(=O)C(Cc1cccc(Cl)c1)NC(=O)[C@@H](NC(=O)[C@H](CCc1ccccc1)NC(=O)CCc1ccccc1)[C@@H](C)O (stereo partly shown) | ≤ 6.00
N=C(N)NCCC[C@H](NC(=O)C1(NC(=O)[C@H](CCc2ccccc2)NC(=O)CCc2ccccc2)CCC1)C(=O)C(=O)NC1CC1 | ≥ 7.00
CNC(=O)C(=O)[C@H](CCCNC(=N)N)NC(=O)[C@@H](NC(=O)[C@H](CCc1ccccc1)NC(=O)OCc1ccccc1)[C@@H](C)O | ≥ 7.00
C[C@@H](O)[C@H](NC(=O)C(CCc1ccccc1)NC(=O)CCc1ccccc1)C(=O)NC(Cc1cccc(CN)c1)C(=O)C(=O)NC1CC1 (stereo partly shown) | 6.00 to 7.00
C[C@@H](O)[C@H](NC(=O)C(CCc1ccccc1)NC(=O)CCc1ccccc1)C(=O)NC(Cc1ccc(N)nc1)C(=O)C(=O)NC1CC1 (stereo partly shown) | ≤ 6.00
C[C@@H](O)[C@H](NC(=O)[C@H](CCc1ccccc1)NC(=O)CCc1ccccc1)C(=O)N[C@@H](CCCNC(=N)N)C(=O)C(=O)NC1(c2cccnc2)CC1 | ≥ 7.00
C[C@H](O)[C@H](NC(=O)[C@H](CCc1ccccc1)NC(=O)CCc1ccccc1)C(=O)NC(CCCNC(=N)N)C(=O)C(=O)NC(C)(C)C (stereo partly shown) | ≥ 7.00
C[C@@H](O)[C@H](NC(=O)[C@H](Cc1cscn1)NC(=O)OCc1ccccc1)C(=O)N[C@@H](CCCNC(=N)N)C(=O)C(=O)NC(C)(C)C | ≥ 7.00
CC(C)[C@H](NC(=O)[C@H](Cc1cscn1)NC(=O)OCc1ccccc1)C(=O)N[C@@H](CCCNC(=N)N)C(=O)C(=O)NC(C)(C)C | ≥ 7.00
C[C@@H](O)[C@H](NC(=O)[C@H](CCc1ccccc1)NC(=O)CCc1ccccc1)C(=O)NC(CCc1nc(N)no1)C(=O)C(=O)NC(C)(C)C (stereo partly shown) | ≤ 6.00

Compound | pKi
C[C@@H](O)[C@H](NC(=O)[C@H](Cc1cscn1)NC(=O)CCc1ccccc1)C(=O)N[C@@H](CCCNC(=N)N)C(=O)C(=O)NC(C)(C)C | ≥ 7.00
CC(C)[C@H](NC(=O)[C@H](Cc1cscn1)NC(=O)CCc1ccccc1)C(=O)N[C@@H](CCCNC(=N)N)C(=O)C(=O)NC(C)(C)C | ≥ 7.00
C[C@@H](O)[C@H](NC(=O)[C@H](Cc1cccnc1)NC(=O)OCc1ccccc1)C(=O)NC(CCCNC(=N)N)C(=O)C(=O)NC(C)(C)C (stereo partly shown) | ≥ 7.00
CO[C@@H]1CC(C(=O)N[C@@H](CCCNC(=N)N)C(=O)C(=O)NC(C)(C)C)N(C(=O)[C@H](Cc2cscn2)NC(=O)OCc2ccccc2)C1 (stereo partly shown) | ≥ 7.00
CC(C)(C)NC(=O)C(=O)[C@H](CCCNC(=N)N)NC(=O)C1C[C@@H](O)CN1C(=O)[C@H](Cc1cscn1)NC(=O)OCc1ccccc1 (stereo partly shown) | ≥ 7.00
C[C@H](O)[C@H](NC(=O)[C@H](CCc1ccccc1)NC(=O)OCc1ccccc1)C(=O)N[C@@H](CCCNC(=N)N)C(=O)C(=O)NC(C)(C)C | ≥ 7.00
C[C@H](O)[C@H](NC(=O)[C@H](Cc1cscn1)NC(=O)OCc1ccccc1)C(=O)N[C@@H](CCCNC(=N)N)C(=O)C(=O)NC(C)(C)C | ≥ 7.00
CC(C)(C)NC(=O)C(=O)C(CCCNC(=N)N)NC(=O)C1(NC(=O)[C@H](Cc2cscn2)NC(=O)OCc2ccccc2)CCCC1 (stereo partly shown) | ≥ 7.00
C[C@@H](O)[C@H](NC(=O)[C@H](Cc1ccc(F)cc1)NC(=O)OCc1ccccc1)C(=O)NC(CCCNC(=N)N)C(=O)C(=O)NC(C)(C)C (stereo partly shown) | ≥ 7.00
C[C@H](O)[C@H](NC(=O)[C@H](CCc1ccccc1)NC(=O)CCc1ccccc1)C(=O)N[C@@H](CCCNC(=N)N)C(=O)C(=O)N[C@@H]1C[C@@H]1F | ≥ 7.00
CO[C@@H](C)C(NC(=O)[C@H](Cc1cscn1)NC(=O)OCc1ccccc1)C(=O)NC(CCCNC(=N)N)C(=O)C(=O)NC(C)(C)C (stereo partly shown) | ≥ 7.00
CO[C@H](C)[C@H](NC(=O)[C@H](Cc1cscn1)NC(=O)OC(C)C)C(=O)NC(CCCNC(=N)N)C(=O)C(=O)NC(C)(C)C (stereo partly shown) | ≥ 7.00
CO[C@H](C)[C@H](NC(=O)C(Cc1cscn1)NC(=O)OCc1ccccc1)C(=O)NC(Cc1ccnc(N)c1)C(=O)C(=O)NC(C)(C)C (stereo partly shown) | ≥ 7.00
C[C@@H](O)[C@H](NC(=O)C(CCc1ccccc1)NC(=O)OCc1ccccc1)C(=O)NC(CCCS(C)(=N)=O)C(=O)C(=O)NC(C)(C)C (stereo partly shown) | ≤ 6.00
CC(C)(C)NC(=O)C(=O)[C@H](CCCNC(=N)N)NC(=O)C1COCCN1C(=O)[C@H](Cc1cscn1)NC(=O)OCc1ccccc1 (stereo partly shown) | ≥ 7.00
CO[C@@H](C)[C@H](NC(=O)C(CCc1ccccc1)NC(=O)OCc1ccccc1)C(=O)NC(CCCNC(=N)N)C(=O)C(=O)NC(C)(C)C (stereo partly shown) | ≥ 7.00
C[C@@H](O)[C@H](NC(=O)C(CCc1ccccc1)NC(=O)OCc1ccccc1)C(=O)NC(CCc1ccc(N)nc1)C(=O)C(=O)NC(C)(C)C (stereo partly shown) | 6.00 to 7.00
C[C@@H](O)[C@H](NC(=O)[C@H](CCc1ccccc1)NC(=O)CCc1ccccc1)C(=O)NC(CCCNC(=N)N)C(=O)C(=O)NCc1cccnc1 (stereo partly drawn) [6-guanidino-3-((2S,3R)-3-hydroxy-2-((S)-4-phenyl-2-(3-phenylpropanamido)butanamido)butanamido)-2-oxo-N-(pyridin-3-ylmethyl)hexanamide] | ≥ 7.00
N=C(N)NCCC[C@H](NC(=O)[C@@H]1C[C@@H](OCc2ccccc2)CN1C(=O)[C@H](CCc1ccccc1)NC(=O)CCc1ccccc1)C(=O)C(=O)NC1CC1 [(2S,4R)-4-(benzyloxy)-N—((S)-1-(cyclopropylamino)-6-guanidino-1,2-dioxohexan-3-yl)-1-((S)-4-phenyl-2-(3-phenylpropanamido)butanoyl)pyrrolidine-2-carboxamide] | ≥ 7.00
N=C(N)NCCC[C@H](NC(=O)[C@@H]1C[C@@H](O)CN1C(=O)[C@H](CCc1ccccc1)NC(=O)CCc1ccccc1)C(=O)C(=O)NC1CC1 [(2S,4R)—N—((S)-1-(cyclopropylamino)-6-guanidino-1,2-dioxohexan-3-yl)-4-hydroxy-1-((S)-4-phenyl-2-(3-phenylpropanamido)butanoyl)pyrrolidine-2-carboxamide] | ≥ 7.00
